Patent publication US4645770A, “Agent for treating Parkinson's disease or Parkinsonism” (priority 1985, dated 1987)
Counter-ions that a name gives are not always drawn.

How the values were obtained:
[1] = tested on: postsynaptic dopamine (DA) receptors; assay: Ipsilateral rotation in the ibotenic acid model; type: in vivo, rat
[2] = tested on: presynaptic dopaminergic receptors; details: Anden et al., 1983; cited from earlier work
"naive" rat [3] = assay: Spontaneous motor activity: non-ambulatory (stereotypical) movements, Opto-Varimex 3; type: in vivo; details: for Stereotypical movements (Movements/15 min.): from 55 minutes after injection
Procedure: (§1) (A) Spontaneous motor activity in the "naive" rat
(§2) Two aspects of motor function were recorded with a known "Opto-Varimex 3":
(b) "non-ambulatory" movements which are made up essentially of stereotypical movements, which began to be recorded 45 minutes after the animals had been put into the recording cage (and 55 minutes after s.c. injection).
(§3) The following doses of B-HT 920 were tested: 0.02, 0.2, 2.0 mg/kg s.c.. As a comparison apomorphine was tested in a dosage of 0.1 mg/kg s.c.

[4] = tested on: MPTP Parkinsonism syndrome; assay: MPTP model of Parkinson's disease in Rhesus monkeys; type: in vivo
Text: The irreversible neurological syndrome triggered in monkeys and humans by MPTP largely resembles idiopathic Parkinson's disease in its clinical, pathological, biochemical and pharmacological features (Markey et al., Nature 311, 464 (1984)). The reason for this strong similarity is the fact that MPTP selectively destroys the small group of dopaminergic nerve cells in the substantia nigra of the brain which are also destroyed by degenerative processes in naturally occurring Parkinson's disease. There is even some discussion to the effect that idiopathic Parkinson's disease might be caused by MPTP or a similar chemical compound formed in the organism (Snyder, S. H., Nature 311, 514 (1984)). Possibly as a result of the specific metabolism of MPTP, the clinical features of the MPTP Parkinsonism syndrome have been thusfar only been detected in monkeys and man. The MPTP model produced in Rhesus monkeys is therefore exceptionally suitable for testing the effect of anti-Parkinson's drugs.
Voluntary movements of the hindquarters and extremities could not generally be initiated even by extreme and painful stimulation.
After the intramuscular administration of B-HT 920 (50-100 mcg/kg) the first voluntary movements occurred at a time interval of 5 to 10 minutes, followed in the next 10 to 30 minutes by a gradual, extensive normalization of motor function. The animals were capable of taking food. They maintained thier normal posture within their cages and also behaved normally in terms of vigilance and species-specific behavior. […] There was no sedation.

[5] = tested on: denervated post-synaptic DA receptors; assay: Contralateral rotation on the 6-OHDA model; type: in vivo, rat
"naive" rat [6] = assay: Spontaneous motor activity: ambulatory movements (exploratory activity), Opto-Varimex 3; type: in vivo; details: for Contacts broken (exploratory activity/5 min.): first 5 minutes after injection
Procedure: as §1, §2
(a) "ambulatory" movements in the first 5 minutes after s.c. injection of B-HT 920; this phase of locomotor function corresponds to the so-called "exploratory activity" of rats in a new environment;
as §3

[7] = Oral acute toxicity (LD50) in the mouse; details: in vivo

SMILES: C=CCN1CCc2nc(N)sc2CC1 [B-HT 920, 2-amino-6-allyl-5,6,7,8-tetrahydro-4H-thiazole-[4,5-d]azepine dihydrochloride]
- Ipsilateral rotations/duration of activity ([1]; 0.2 mg/kg s.c., up to 6 hours): 37 Ipsilateral rotations/duration of activity
- Ipsilateral rotations/duration of activity ([1]; 0.5 mg/kg s.c., up to 6 hours): 54 Ipsilateral rotations/duration of activity
- Ipsilateral rotations/duration of activity ([1]; 1.0 mg/kg s.c., up to 6 hours): 102 Ipsilateral rotations/duration of activity
- Ipsilateral rotations/duration of activity ([1]; 2.0 mg/kg s.c., up to 6 hours): 96 Ipsilateral rotations/duration of activity
- Activity on the normally sensitive DA receptor (in words) ([1]; compared with apomorphine): only a weak activity
- Post-synaptic DA-agonistic activity relative to apomorphine on the normally sensitive DA receptor ([1]; fraction of the activity of apomorphine): about one eighth
- Agonist effect on presynaptic dopaminergic receptors [2]: agonist with a selective effect on presynaptic dopaminergic receptors
- Stereotypical movements (Movements/15 min.) ("naive" rat [3]; 0.2 mg/kg s.c.): 370 Movements/15 min.
- Stereotypical movements (Movements/15 min.) ("naive" rat [3]; 2.0 mg/kg s.c.): 310 Movements/15 min.
- Stereotypical movements (Movements/15 min.) ("naive" rat [3]; 4.0 mg/kg s.c.): 340 Movements/15 min.
- Increase in the number of stereotypical movements ("naive" rat [3]; any of the doses tested): did not lead to an increase in the number of stereotypical movements
- Behavior of the animals after administration ([4]; 50-100 mcg/kg intramuscular): The animals were capable of taking food. They maintained thier normal posture within their cages and also behaved normally in terms of vigilance and species-specific behavior
- Residual symptoms recorded ([4]; 50-100 mcg/kg intramuscular): an occasional, transient, slight resting tremor and a reduction in brute strength
- Sedation ([4]; 50-100 mcg/kg intramuscular): no sedation
- Time after which the effect diminished ([4]; 50-100 mcg/kg intramuscular): about 3 hours
- Blood supply to the skin ([4]; 50-100 mcg/kg intramuscular, compared with the state before administration): appeared to be increased
- Effect of fresh administration on clinical pathological symptoms ([4]; after reversion to the Parkinson's symptoms): improvement or substantial removal of the clinical pathological symptoms
- Side effects ([4]; at the dosages used): No side effects were discovered
- Contralateral rotations up to 6 hours ([5]; 0.02 mg/kg): 168 Contralateral rotations
- Contralateral rotations up to 6 hours ([5]; 0.05 mg/kg): 582 Contralateral rotations
- Contralateral rotations up to 6 hours ([5]; 0.5 mg/kg): 1282 Contralateral rotations
- Contralateral rotations up to 6 hours ([5]; 1.0 mg/kg): 1442 Contralateral rotations
- Activity on denervated receptors ([5]; by contrast with its weak effect on normal DA receptors): exceptionally strong activity on denervated receptors
- Contacts broken (exploratory activity/5 min.) ("naive" rat [6]; 0.02 mg/kg s.c.): 380 /5 min.
- Contacts broken (exploratory activity/5 min.) ("naive" rat [6]; 0.2 mg/kg s.c.): 150 /5 min.
- Inhibitory effect on the exploratory activity ("naive" rat [6]; 0.2 mg/kg, compared with 0.1 mg/kg of apomorphine): almost maximum
- Contacts broken (exploratory activity/5 min.) ("naive" rat [6]; 2.0 mg/kg s.c.): 130 /5 min.

SMILES: C=CCN1CCc2nc(N)sc2CC1 [Compound A, 2-amino-6-allyl-5,6,7,8-tetrahydro-4H-thiazolo[4,5-d]azepine]
- LD50 [7]: 455 mg/kg

SMILES: CN1CCc2cccc3c2[C@H]1Cc1ccc(O)c(O)c1-3 [apomorphine, reference compound]
- Ipsilateral rotations/duration of activity ([1]; 0.5 mg/kg s.c., up to 3 hours): 265 Ipsilateral rotations/duration of activity
- Ipsilateral rotations/duration of activity ([1]; 1.0 mg/kg s.c., up to 3 hours): 436 Ipsilateral rotations/duration of activity
- Ipsilateral rotations/duration of activity ([1]; 10.0 mg/kg s.c., up to 3 hours): 880 Ipsilateral rotations/duration of activity
- Stereotypical movements (Movements/15 min.) ("naive" rat [3]; 4.0 mg/kg s.c.): 650 Movements/15 min.
- Contralateral rotations up to 6 hours ([5]; 0.05 mg/kg): 557 Contralateral rotations
- Contacts broken (exploratory activity/5 min.) ("naive" rat [6]; 0.1 mg/kg s.c.): 150 /5 min.
